Data set [1] is described as follows: Oral absorption of CBD in rats. The data set is classed as in vivo, Sprague drawly rats. The note with it: gavage to the stomach, 12 mg/kg, plasma CBD by LC-MS. Here is the method: A tablet of composition of 5A was diluted with water of about 40° C. before administration to the rats to obtain CBD concentration of 12 mg/ml and to obtain the cannabinoid oil-in-water emulsion. The emulsion was administered in gavage to the stomach of Sprague drawly rats weighing 220 gr to 250 gr at 12 mg/kg. Blood sample was obtained at various time points after the oral administration and plasma separated. The CBD concentration in the plasma was tested by LC-MS and the area under the curve calculate. Group one was administered with 12 mg/kg of pure CBD dissolved in “solvent” propylene glycol:ethanol 1:1 solution. Group two received the test formulation.

The next data set concerns human lung tumors. The note with it: human lung tumors implanted into rats and mice; cited from earlier work.

Molecule `C=C(C)[C@@H]1CCC(C)=C[C@H]1c1c(O)cc(CCCCC)cc1O` [CBD, cannabidiol] gave a peak concentration (Cmax) in data set [1] (Sprague-Dawley, rat, po) of 38 ng/mL. Besides, the “AUC (Area Under the Curve of CBD in rats' plasma)” value in data set [1] was 90 ± 12 ng/mL/h.
Regarding `CCCCCc1cc(O)c2c(c1)OC(C)(C)[C@@H]1CCC(C)=C[C@@H]21` [THC, tetrahydrocannabinol], in the data set with human lung tumors, the “reduction in tumor mass and volume” value is on record as not above 50%; the “reduction of cancerous lesions in the lungs” value is listed as “around 60%”.

In general, Cmax refers to the highest concentration seen after dosing.
